Source: US7629315B2, “Compositions for blocking the inhibitory effect of human CRP on human leptin” (University of Pittsburgh of the Commonwealth System of …, priority 2005, dated 2009)

T1: long-form human leptin receptor, OB-Rb (Homo sapiens, UniProt P48357)
T1 construct: expressed in transfected cells
T1 sequence (P48357 22-1165): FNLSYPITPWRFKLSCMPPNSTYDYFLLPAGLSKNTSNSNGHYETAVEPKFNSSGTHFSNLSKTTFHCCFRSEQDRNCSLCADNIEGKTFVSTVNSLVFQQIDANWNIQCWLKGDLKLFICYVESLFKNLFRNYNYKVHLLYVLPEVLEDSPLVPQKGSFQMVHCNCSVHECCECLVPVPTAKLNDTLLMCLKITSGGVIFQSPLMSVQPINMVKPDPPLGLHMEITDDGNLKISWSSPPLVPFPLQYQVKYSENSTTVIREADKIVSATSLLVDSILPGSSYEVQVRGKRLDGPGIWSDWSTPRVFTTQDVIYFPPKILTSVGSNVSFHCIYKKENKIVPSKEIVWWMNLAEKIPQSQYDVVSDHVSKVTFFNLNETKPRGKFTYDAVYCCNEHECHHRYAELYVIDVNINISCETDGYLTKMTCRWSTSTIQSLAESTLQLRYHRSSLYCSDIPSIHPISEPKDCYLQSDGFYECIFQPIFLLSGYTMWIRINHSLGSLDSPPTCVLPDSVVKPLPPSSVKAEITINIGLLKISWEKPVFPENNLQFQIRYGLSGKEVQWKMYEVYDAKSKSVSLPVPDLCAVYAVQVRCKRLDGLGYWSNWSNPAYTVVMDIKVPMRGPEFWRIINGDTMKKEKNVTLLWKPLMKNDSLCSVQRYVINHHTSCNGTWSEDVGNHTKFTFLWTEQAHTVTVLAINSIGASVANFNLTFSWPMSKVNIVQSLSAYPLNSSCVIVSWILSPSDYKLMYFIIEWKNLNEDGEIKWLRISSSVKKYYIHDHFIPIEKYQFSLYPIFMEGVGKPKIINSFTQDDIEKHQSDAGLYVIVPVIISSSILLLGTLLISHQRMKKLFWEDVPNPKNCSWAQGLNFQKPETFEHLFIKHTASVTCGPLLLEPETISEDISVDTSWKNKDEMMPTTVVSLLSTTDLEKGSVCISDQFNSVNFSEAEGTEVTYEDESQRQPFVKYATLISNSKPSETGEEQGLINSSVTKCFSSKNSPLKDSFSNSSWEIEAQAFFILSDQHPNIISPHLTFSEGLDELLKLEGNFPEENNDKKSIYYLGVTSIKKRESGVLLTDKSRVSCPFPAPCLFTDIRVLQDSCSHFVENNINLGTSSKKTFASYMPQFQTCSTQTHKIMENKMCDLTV


Key:
[1] = molecular target: T1, long-form human leptin receptor, OB-Rb; experiment: 125I-leptin binding to HEK293 cells stably transfected with OB-Rb; conditions: HEK293 cell line stably transfected with OB-Rb; read-out: Kd for leptin and its receptors
Description: 4. Measurement of IC50 for human CRP against human leptin: Human leptin was iodinated with Na^125I using the lodogen method. Briefly, 15 μg of human leptin in 100 mM Phosphate buffer pH 7.5 were incubated with 1 mCi of carrier-free Na^125I (2200 Ci/mmol) in a glass tube containing 50 μg Iodogen. After 10 minute incubation at room temperature, the reaction was stopped with 100 μl 0.1% trifluoroacetic acid (TFA). The reaction mixture was immediately purified by reverse-phase HPLC. The separation employed a 5 minute isocratic step at 20% eluant B in A, followed by two consecutive 30 minute linear gradients from 20 to 50%, then from 50 to 60% eluant B in A (where eluant A is water containing 0.1% TFA and eluant B is acetonitrile containing 0.1% TFA) at a flow rate of 1.5 ml/min. The ^125I-labeled leptin (˜2 ng/ml) was pre-incubated with various concentrations of human CRP in 1 ml of μ-MEM for 30 minute before added to the OBR-expressing HEK293 cells. The incubation would last for 3 hours at 4° C. before the media was aspirated and the cells were dissolved in 0.1N NaOH for scintillation counting.
To examine if human CRP interferes with the binding of human leptin to its receptors, we used a HEK293 cell line stably transfected with the long-form human leptin receptor, OB-Rb. The characterization of this cell line has been reported in earlier studies. M. Friedman-Einat et al., 2003, Regul. Pept. […]

[2] = system: ob/ob mice; experiment: Infusion of human CRP and/or human leptin by osmotic pumps into ob/ob mice; assay type: in vivo, mouse
Description: 3(a). In vivo assessment of CRP functions: The micro-osmotic pumps (#1007D, DURECT, Cupertino, Calif.) were subcutaneously imbedded in the ob/ob or wild-type mice according to the instructions of the manufacturer. The osmotic pumps were pre-filled with saline, CRP, leptin or leptin plus CRP. Food-intake (24-h), body weight, and body temperature were monitored daily post-surgery. Blood glucose concentrations were measured from the tail-vein blood samples right before and at the end of infusion with a Precision Plus glucose meter (Medisense, Abbot Park, Ill.).
3(b) Assessment of serum leptin insulin, and CRP: Human- and mouse-leptin concentrations were measured with the ELISA kit from CHEMICON (Temecular, Calif.) and R&D Systems (Minneapolis, Minn.), respectively, according to the instructions of the manufacturer. Serum mouse insulin concentrations were determined with an ELISA assay (LINCO Research, St. Charles, Mo.). Human CRP concentrations were also evaluated with an ELISA kit (Alpha Diagnostics International, San Antonio, Tex.).
3(c) Measurement of serum- and tissue-triglycerides: Serum- and tissue-triglycerides were determined with the protocols described in J. N. Huan et al., 2003, J. Biol. Chem. 278, 45638. […]

[3] = system: human primary hepatocytes; experiment: Leptin-stimulated CRP expression in human primary hepatocytes in vitro; assay type: cell-based
[4] = system: lean and healthy humans; experiment: Injection of leptin in lean and healthy humans, plasma CRP; assay type: in vivo, human
[5] = system: mice; experiment: Continuous infusion of leptin in mice, plasma SAP; assay type: in vivo, mouse; conditions: elevation of serum leptin through continuous infusion in mice
[6] = system: leptin; experiment: Immunoprecipitation of mouse SAP with leptin; assay type: binding
[7] = human leptin alone, 6-day continuous infusion

Kd [1] [nM]	binding of leptin (immunoprecipitation) [6]	Molecule	body weight [2, 7]	food-intake [2, 7]	blood glucose ([2]; leptin alone)	hepatic triglyceride ([2]; leptin alone)	plasma insulin ([2]; leptin alone)	serum triglyceride ([2]; leptin alone)	expression of CRP [3]	plasma CRP concentrations [4]	plasma concentrations of SAP [5]
1	–	human leptin: recombinant human leptin, adipocyte hormone (SEQ ID NO:4)	produced the expected reduction in food-intake and body weight	produced the expected reduction in food-intake and body weight	lowering	lowering	lowering	lowering	stimulates expression of CRP	leads to elevation of plasma CRP concentrations	increased plasma concentrations of SAP in mice
–	leptin binds to mouse SAP	mouse SAP: mouse pentraxin-like serum amyloid P component structurally similar to CRP (protein) QTDLKRKVFVFPRESETDHVKLIPHLEKPLQNFTLCFRTYSDLSRSQSLFSYSVKGRDNELLIYKEKVGEYSLYIGQSKVTVRGMEEYLSPVHLCTTWESSSGIVEFWVNGKPWVKKSLQREYTVKAPPSIVLGQEQDNYGGGFQRSQSFVGEFSDLYMWDYVLTPQDILFVYRDSPVNPNILNWQALNYEINGYVVIRPRVWD	–	–	–	–	–	–	–	–	–
